# Measured values as given in publication PMC7594721, “Synthesis and biological activity of 2-cyanoacrylamide derivatives tethered to imidazopyridine as TAK1 inhibitors” (Journal of Enzyme Inhibition and Medicinal Chemistry, 2020).
# Assays:
# [1] = target: T1, TAK1 (Homo sapiens, UniProt O43318); assay: TAK1 LanthaScreen Eu Kinase Binding Assay (Invitrogen; Table 1 calls it TAK1 enzymatic assay); conditions: for IC50: read-out: IC50 against TAK1; for TAK1 potency, SAR result in words: Table 1 SAR discussion
# T1 construct: purchased Invitrogen (Thermo Fisher Scientific)
# T1 sequence (O43318 with tags, fused parts or gaps limits assumed): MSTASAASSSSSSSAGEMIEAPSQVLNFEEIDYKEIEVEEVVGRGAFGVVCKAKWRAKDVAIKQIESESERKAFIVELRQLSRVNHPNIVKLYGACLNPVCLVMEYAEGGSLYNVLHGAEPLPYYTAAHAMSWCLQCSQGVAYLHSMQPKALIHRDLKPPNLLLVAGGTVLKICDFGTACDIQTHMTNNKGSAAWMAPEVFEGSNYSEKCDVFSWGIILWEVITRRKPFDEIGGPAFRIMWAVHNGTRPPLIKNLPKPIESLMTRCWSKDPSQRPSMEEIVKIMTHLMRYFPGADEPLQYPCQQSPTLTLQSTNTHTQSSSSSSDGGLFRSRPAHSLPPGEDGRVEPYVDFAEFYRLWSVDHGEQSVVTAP
# Method: Kinase assays were performed by Invitrogen (now Thermo Fisher Scientific, Waltham, MA) or Reaction Biology Corp. (Malvern, PA). Inhibitory activity of compounds for TAK1 was evaluated using LanthaScreen® Eu Kinase Binding Assay (Invitrogen, Waltham, MA). The kinase profile of compound 13h was determined by the kinase HotSpot Profiling service of Reaction Biology Corporation. All assays were performed at Km for ATP.
# Table 1. TAK1 enzymatic assay with imidazopyridine derivatives. ^a In-vitro enzymatic assay data obtained from Invitrogen^TM.
# [2] = system: MDA-MB-231 cells; assay: Caspase-3/7 assay (Apo-ONE); format: cell-based; conditions: 10 µM, presence of TNFα (10 ng/ml), 24 h, MDA-MB-231, positive control
# Method: MDA-MB-231 cells were obtained from the Korean Cell Line Bank. Cells were cultured in Roswell Park Memorial Institute (RPMI) 1640 medium containing 10% foetal bovine serum and 1% penicillin/streptomycin at 37 °C with 5% CO2 under humidified atmosphere.
# The assay was performed using Apo-ONE® Homogeneous Caspase-3/7 Assay kits (Catalogue No. G7790, Promega, Madison, WI). MDA-MB-231 cells in a concentration of 5000 cells/100 µl were seeded in each well of a black 96-well plate and starved after adhering to the plate. The cells were incubated for 24 h, and the serum-starved cells were treated with either Takinib or 13h in the presence or absence of TNFα (10 ng/ml). All samples and the control contained DMSO in a final concentration of 0.5%. After another 24 h of incubation, 100 µL of Apo-ONE® caspase-3/7 reagent was added to each well, and the cells were incubated at room temperature in darkness for 2 h. Fluorescence was then measured at 530 nm with excitation at 485 nm using a FlexStation 3 Multi-Mode microplate reader (Molecular Devices). Statistical analyses of the data included a one-way ANOVA, followed by Tukey’s multiple comparison test.
Compound,"TAK1 potency, SAR result in words [1]",also measured
C=CC(=O)N[C@@H]1CCN(c2nc(Nc3ccc(N4CCN(C)CC4)cc3)ncc2Cl)C1 [Compound 6],–,IC50 [1]: 0.413 µM
"CN1CCN(c2ccc(-c3nc4c(N5CC[C@@H](NC(=O)/C(C#N)=C/c6ccccc6)C5)c(Cl)cnc4[nH]3)cc2)CC1 [Compound 13a, (R,E)-N-(1-(6-chloro-2-(4-(4-methylpiperazin-1-yl)phenyl)-3H-imidazo[4,5-b]pyridin-7-yl)pyrrolidin-3-yl)-2-cyano-3-phenylacrylamide]",–,"IC50 fold lower than the IC50 of 14 ([1]; TAK1, compared with 14): ~2.5 fold; IC50 [1]: 0.385 µM"
"Cc1csc(/C=C(\C#N)C(=O)N[C@@H]2CCN(c3c(Cl)cnc4[nH]c(-c5ccc(N6CCN(C)CC6)cc5)nc34)C2)n1 [Compound 13b, (R,E)-N-(1-(6-chloro-2-(4-(4-methylpiperazin-1-yl)phenyl)-3H-imidazo[4,5-b]pyridin-7-yl)pyrrolidin-3-yl)-2-cyano-3-(4-methylthiazol-2-yl)acrylamide]",highest potency,–
"CN1CCN(c2ccc(-c3nc4c(N5CC[C@@H](NC(=O)/C(C#N)=C/c6cccc(F)n6)C5)c(Cl)cnc4[nH]3)cc2)CC1 [Compound 13f, (R,E)-N-(1-(6-chloro-2-(4-(4-methylpiperazin-1-yl)phenyl)-3H-imidazo[4,5-b]pyridin-7-yl)pyrrolidin-3-yl)-2-cyano-3–(6-fluoropyridin-2-yl)acrylamide]",maintained or improved potency,–
"CN1CCN(c2ccc(-c3nc4c(N5CC[C@@H](NC(=O)/C(C#N)=C/c6cccc(Cl)n6)C5)c(Cl)cnc4[nH]3)cc2)CC1 [Compound 13g, (R,E)-N-(1–(6-chloro-2–(4–(4-methylpiperazin-1-yl)phenyl)-3H-imidazo[4,5-b]pyridin-7-yl)pyrrolidin-3-yl)-3-(6-chloropyridin-2-yl)-2-cyanoacrylamide]",increased,–
"CN1CCN(c2ccc(-c3nc4c(N5CC[C@@H](NC(=O)/C(C#N)=C/c6cccc(C7CC7)n6)C5)c(Cl)cnc4[nH]3)cc2)CC1 [Compound 13i, (R,E)-N-(1–(6-chloro-2–(4-(4-methylpiperazin-1-yl)phenyl)-3H-imidazo[4,5-b]pyridin-7-yl)pyrrolidin-3-yl)-2-cyano-3-(6-cyclopropylpyridin-2-yl)acrylamide]",increased,–
"Cc1ccc(/C=C(\C#N)C(=O)N[C@@H]2CCN(c3c(Cl)cnc4[nH]c(-c5ccc(N6CCN(C)CC6)cc5)nc34)C2)nc1 [Compound 13j, (R,E)-N-(1–(6-chloro-2–(4-(4-methylpiperazin-1-yl)phenyl)-3H-imidazo[4,5-b]pyridin-7-yl)pyrrolidin-3-yl)-2-cyano-3-(5-methylpyridin-2-yl)acrylamide]",excellent,–
"COc1ccc(/C=C(\C#N)C(=O)N[C@@H]2CCN(c3c(Cl)cnc4[nH]c(-c5ccc(N6CCN(C)CC6)cc5)nc34)C2)nc1 [Compound 13k, (R,E)-N-(1–(6-chloro-2–(4-(4-methylpiperazin-1-yl)phenyl)-3H-imidazo[4,5-b]pyridin-7-yl)pyrrolidin-3-yl)-2-cyano-3-(5-methoxypyridin-2-yl)acrylamide]",increased,–
"Cc1ccnc(/C=C(\C#N)C(=O)N[C@@H]2CCN(c3c(Cl)cnc4[nH]c(-c5ccc(N6CCN(C)CC6)cc5)nc34)C2)c1 [Compound 13l, (R,E)-N-(1-(6-chloro-2-(4-(4-methylpiperazin-1-yl)phenyl)-3H-imidazo[4,5-b]pyridin-7-yl)pyrrolidin-3-yl)-2-cyano-3–(4-methylpyridin-2-yl)acrylamide]",excellent,–
"CCCn1/c(=N/C(=O)c2cccc(C(N)=O)c2)[nH]c2ccccc21 [Takinib, reference compound]",–,caspase-3/7 activity [2]: significant caspase activation
(R)-N-(1–(5-chloro-2-((4–(4-methylpiperazin-1-yl)phenyl)amino)pyrimidin-4-yl)pyrrolidin-3-yl)acrylamide [Compound 14],–,"IC50 relative to that of the pyrimidine (6) ([1]; TAK1, compared with 6): approximately twice; IC50 [1]: 0.961 µM"
